According to US20070197609A1, “SALTS OF INDUCIBLE NITRIC OXIDE SYNTHASE DIMERIZATION INHIBITORS” (KALYPSYS, INC., priority 2005, published 2007):

What was measured:
[1] = Solubility in selected solvents; type: physicochemical; conditions: thermodynamic from solid
Method: The solubility of Compound 2 acetate was investigated with regard to potential process and formulation solvents. The solubility of Compound 2 acetate was evaluated by preparing saturated solution of Compound 2 in the selected solvents, filtering the samples (0.22 μm), diluting, and determining concentration by external standard HPLC using a rapid analysis assay.

[2] = Moisture sorption/desorption analysis for hygroscopicity; type: physicochemical; conditions: for hygroscopicity: moisture sorption/desorption behavior; for initial weight loss upon equilibration: at 5% RH; for total weight gain: at 95% RH
From the text: This weight was gradually regained by approximately 75% RH with a total weight gain of approximately 0.64% at 95% RH. Slightly more weight was lost during desorption with litle hysterisis.
The moisture sorption/desorption profiles of Compound 2 hydrochloride, Compound 2 acetate, and compound 2 adipate are presented in Table 7. […] Relative humidity was then increased and weight measurements taken at regular intervals. Change is given as percent of original sample.

LPS Induced iNOS = conditions: rat; cited from earlier work
hnNOS = biological target: T1, hnNOS (Homo sapiens, UniProt P29475); conditions: DAN assay, HEK293 cells transfected with NOS isoform; cited from earlier work
T1 construct: expressed in transfected cells; host or cells: HEK293

hiNOS = biological target: T2, hiNOS (Homo sapiens, UniProt P35228); conditions: DAN assay, HEK293 cells transfected with NOS isoform; cited from earlier work
T2 construct: expressed in transfected cells; host or cells: HEK293

heNOS = biological target: T3, heNOS (Homo sapiens, UniProt P29474); conditions: DAN assay, HEK293 cells transfected with NOS isoform; cited from earlier work
T3 construct: expressed in transfected cells; host or cells: HEK293
T3 sequence (P29474 2-1203 limits assumed): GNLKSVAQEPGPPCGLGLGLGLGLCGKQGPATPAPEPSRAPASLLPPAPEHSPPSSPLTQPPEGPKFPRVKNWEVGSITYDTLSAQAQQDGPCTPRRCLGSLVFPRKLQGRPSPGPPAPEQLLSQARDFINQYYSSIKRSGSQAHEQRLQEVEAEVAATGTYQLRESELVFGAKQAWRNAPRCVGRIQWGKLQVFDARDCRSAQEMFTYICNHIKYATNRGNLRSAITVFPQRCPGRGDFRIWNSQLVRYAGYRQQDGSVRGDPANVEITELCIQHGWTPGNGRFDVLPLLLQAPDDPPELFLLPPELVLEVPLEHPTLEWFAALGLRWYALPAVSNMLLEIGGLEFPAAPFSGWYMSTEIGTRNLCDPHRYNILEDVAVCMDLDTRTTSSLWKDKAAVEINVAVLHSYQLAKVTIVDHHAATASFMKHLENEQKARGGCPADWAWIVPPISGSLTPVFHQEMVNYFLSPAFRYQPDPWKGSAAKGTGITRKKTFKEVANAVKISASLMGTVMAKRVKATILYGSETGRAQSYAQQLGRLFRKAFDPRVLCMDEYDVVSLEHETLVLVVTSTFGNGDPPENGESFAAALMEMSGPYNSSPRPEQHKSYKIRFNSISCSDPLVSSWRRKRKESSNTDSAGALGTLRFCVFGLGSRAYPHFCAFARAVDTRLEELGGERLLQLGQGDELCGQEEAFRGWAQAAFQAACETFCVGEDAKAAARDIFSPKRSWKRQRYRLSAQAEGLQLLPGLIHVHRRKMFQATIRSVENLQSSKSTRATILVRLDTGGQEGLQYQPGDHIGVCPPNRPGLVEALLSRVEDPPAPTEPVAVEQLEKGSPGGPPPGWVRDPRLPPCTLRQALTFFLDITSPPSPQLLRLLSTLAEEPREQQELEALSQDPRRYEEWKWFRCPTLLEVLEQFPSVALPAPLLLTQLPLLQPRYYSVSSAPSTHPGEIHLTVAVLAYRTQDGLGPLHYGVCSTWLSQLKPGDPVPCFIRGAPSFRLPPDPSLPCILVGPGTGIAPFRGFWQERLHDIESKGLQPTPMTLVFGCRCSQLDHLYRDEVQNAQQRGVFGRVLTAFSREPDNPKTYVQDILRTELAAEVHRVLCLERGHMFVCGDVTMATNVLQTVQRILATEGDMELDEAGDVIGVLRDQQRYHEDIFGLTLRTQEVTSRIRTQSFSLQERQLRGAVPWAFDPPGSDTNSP

T1 sequence (P29475 whole entry, canonical isoform): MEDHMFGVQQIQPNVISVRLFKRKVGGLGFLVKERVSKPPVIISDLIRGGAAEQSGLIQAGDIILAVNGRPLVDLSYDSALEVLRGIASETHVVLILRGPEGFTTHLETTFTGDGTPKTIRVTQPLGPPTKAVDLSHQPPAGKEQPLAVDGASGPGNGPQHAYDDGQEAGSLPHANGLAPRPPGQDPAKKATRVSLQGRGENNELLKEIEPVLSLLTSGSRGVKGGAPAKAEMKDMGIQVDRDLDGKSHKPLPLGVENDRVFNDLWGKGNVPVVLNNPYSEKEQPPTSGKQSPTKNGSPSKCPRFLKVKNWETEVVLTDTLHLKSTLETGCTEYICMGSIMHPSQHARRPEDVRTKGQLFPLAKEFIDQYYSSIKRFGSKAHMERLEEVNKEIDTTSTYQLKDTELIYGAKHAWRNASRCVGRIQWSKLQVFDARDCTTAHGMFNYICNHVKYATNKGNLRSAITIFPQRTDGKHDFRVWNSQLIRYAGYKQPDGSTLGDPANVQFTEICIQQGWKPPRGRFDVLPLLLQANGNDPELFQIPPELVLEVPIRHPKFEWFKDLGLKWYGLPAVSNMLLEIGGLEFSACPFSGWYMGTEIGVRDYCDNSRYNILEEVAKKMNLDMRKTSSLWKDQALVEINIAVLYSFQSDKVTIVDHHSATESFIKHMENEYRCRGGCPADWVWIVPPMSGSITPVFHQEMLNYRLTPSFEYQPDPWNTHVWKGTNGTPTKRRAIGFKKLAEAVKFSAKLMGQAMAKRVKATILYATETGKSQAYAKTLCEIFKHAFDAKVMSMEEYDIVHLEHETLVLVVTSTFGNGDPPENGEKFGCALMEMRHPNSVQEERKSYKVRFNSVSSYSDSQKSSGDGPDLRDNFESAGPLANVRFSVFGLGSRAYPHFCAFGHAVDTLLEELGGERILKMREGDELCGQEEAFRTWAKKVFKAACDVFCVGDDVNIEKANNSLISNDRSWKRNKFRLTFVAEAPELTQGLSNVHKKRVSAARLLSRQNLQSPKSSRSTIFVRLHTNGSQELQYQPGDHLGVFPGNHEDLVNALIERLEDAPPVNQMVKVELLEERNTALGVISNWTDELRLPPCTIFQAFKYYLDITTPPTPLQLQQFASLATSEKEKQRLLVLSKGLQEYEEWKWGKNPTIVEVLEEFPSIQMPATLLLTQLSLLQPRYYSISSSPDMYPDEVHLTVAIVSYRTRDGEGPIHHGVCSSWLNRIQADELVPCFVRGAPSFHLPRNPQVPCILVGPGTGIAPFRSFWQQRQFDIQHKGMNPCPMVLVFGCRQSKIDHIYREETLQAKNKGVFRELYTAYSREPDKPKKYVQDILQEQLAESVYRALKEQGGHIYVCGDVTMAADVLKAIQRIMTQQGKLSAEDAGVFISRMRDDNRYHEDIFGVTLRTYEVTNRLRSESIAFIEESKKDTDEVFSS

| Compound | Weight % Change, Adsorption ([2]; 5 Percent Relative Humidity) | Weight % Change, Desorption ([2]; 5 Percent Relative Humidity) | Weight % Change, Adsorption ([2]; 15 Percent Relative Humidity) | Weight % Change, Desorption ([2]; 15 Percent Relative Humidity) | Weight % Change, Adsorption ([2]; 25 Percent Relative Humidity) | Weight % Change, Desorption ([2]; 25 Percent Relative Humidity) | Weight % Change, Adsorption ([2]; 35 Percent Relative Humidity) | Weight % Change, Desorption ([2]; 35 Percent Relative Humidity) | Weight % Change, Adsorption ([2]; 45 Percent Relative Humidity) | Weight % Change, Desorption ([2]; 45 Percent Relative Humidity) | Weight % Change, Adsorption ([2]; 55 Percent Relative Humidity) | Weight % Change, Desorption ([2]; 55 Percent Relative Humidity) | Weight % Change, Adsorption ([2]; 65 Percent Relative Humidity) | Weight % Change, Desorption ([2]; 65 Percent Relative Humidity) | Weight % Change, Adsorption ([2]; 75 Percent Relative Humidity) | Weight % Change, Desorption ([2]; 75 Percent Relative Humidity) | Weight % Change, Adsorption ([2]; 85 Percent Relative Humidity) | Weight % Change, Desorption ([2]; 85 Percent Relative Humidity) | Weight % Change, Adsorption ([2]; 95 Percent Relative Humidity) | hygroscopicity [2] | further results |
| --- | --- | --- | --- | --- | --- | --- | --- | --- | --- | --- | --- | --- | --- | --- | --- | --- | --- | --- | --- | --- | --- |
| CC(=O)O.CN(CCCNCc1ccc2c(c1)OCO2)c1nc(-n2ccnc2)ns1 [Compound 2 acetate, N′-Benzo[1,3]dioxol-5-ylmethyl-N-(3-imidazol-1-yl-[1,2,4]thiadiazol-5-yl)-N-methyl-propane-1,3-diamine acetate salt] | <1% | <1% | <1% | <1% | <1% | <1% | <1% | <1% | <1% | <1% | <1% | <1% | <1% | <1% | <1% | <1% | <3% | <3% | <5% | significantly hygroscopic at high RH | solubility ([1]; acetonitrile, organic solvent or mixture): 2100 µg/mL; solubility ([1]; dichloromethane, organic solvent or mixture): 10000 µg/mL; solubility ([1]; ethanol, organic solvent or mixture): 8500 µg/mL; solubility ([1]; ethyl acetate, organic solvent or mixture): 2000 µg/mL; solubility ([1]; hexanes, organic solvent or mixture): 3 µg/mL; solubility ([1]; isopropanol, organic solvent or mixture): 3700 µg/mL; solubility ([1]; methanol, organic solvent or mixture): 58300 µg/mL; solubility ([1]; propylene glycol, organic solvent or mixture): 36700 µg/mL; solubility ([1]; water): 44600 µg/mL; solubility ([1]; water:ethanol:propylene glycol (40:40:20), aqueous with cosolvent or surfactant or cyclodextrin): 101000 µg/mL; Weight % Change, Desorption ([2]; 95 Percent Relative Humidity): <5%; weight gain ([2]; over the range of 5 to 85% relative humidity (RH)): minimal weight gain |
| Benzo[1,3]dioxol-5-ylmethyl-{2-[2-(2-imidazol-1-yl-6-methyl-pyrimidin-4-yl)-pyrrolidin-1-yl]-ethyl}-amine [Compound 1] |  |  |  |  |  |  |  |  |  |  |  |  |  |  |  |  |  |  |  |  | LPS Induced iNOS In Vivo, ED50 (LPS Induced iNOS): + ((+), ED50 <10); EC50 (hnNOS): > 1000 nM; EC50 (hiNOS): < 1000 nM; EC50 (heNOS): > 10 µM |
| CN(CCCNCc1ccc2c(c1)OCO2)c1nc(-n2ccnc2)ns1 [Compound 2, N′-Benzo[1,3]dioxol-5-ylmethyl-N-(3-imidazol-1-yl-[1,2,4]thiadiazol-5-yl)-N-methyl-propane-1,3-diamine] |  |  |  |  |  |  |  |  |  |  |  |  |  |  |  |  |  |  |  | not hygroscopic | LPS Induced iNOS In Vivo, ED50 (LPS Induced iNOS): + ((+), ED50 <10); initial weight loss upon equilibration [2]: approximately 0.16%; total weight gain [2]: approximately 0.64%; EC50 (hnNOS): > 1000 nM; EC50 (hiNOS): < 1000 nM; EC50 (heNOS): > 10 µM |
| CN(CCCNCc1ccc2c(c1)OCO2)c1nc(-n2ccnc2)ns1.Cl [Compound 2 hydrochloride, N′-Benzo[1,3]dioxol-5-ylmethyl-N-(3-imidazol-1-yl-[1,2,4]thiadiazol-5-yl)-N-methyl-propane-1,3-diamine hydrochloride salt] | <−1% | <−2% | <−1% | <−1% | <−1% | <−1% | <−1% | <−1% | <−1% | <−1% | <−1% | <0% | <0% | <0% | <0% | <1% | <1% | <2% | <5% | not hygroscopic | Weight % Change, Desorption ([2]; 95 Percent Relative Humidity): <5%; initial weight loss upon equilibration [2]: < 1%; total weight gain [2]: < 5% |
| CN(CCCNCc1ccc2c(c1)OCO2)c1nc(-n2ccnc2)ns1.O=C(O)CCCCC(=O)O [Compound 2 adipate, N′-Benzo[1,3]dioxol-5-ylmethyl-N-(3-imidazol-1-yl-[1,2,4]thiadiazol-5-yl)-N-methyl-propane-1,3-diamine adipate salt] | <0% | <0% | <0% | <0% | <0% | <0% | <0% | <0% | <1% | <1% | <1% | <1% | <1% | <1% | <2% | <2% | <3% | <3% | >6% | hygroscopic, especially at elevated humidities | Weight % Change, Desorption ([2]; 95 Percent Relative Humidity): >6%; initial weight loss upon equilibration [2]: less than 1%; total weight gain [2]: over 6% |
